Measured values taken from patent US20230303604A1, “METALLIC TRANS-(N-HETEROCYCLIC CARBENE)-AMINE-PLATINUM COMPLEXES AND USES THEREOF FOR TREATING CANCER” (INSTITUT CURIE, priority 2020, published 2023).

How the values were obtained:
Format in all cases: cell-based
[1] = system: cervical cancerous cell lines (IC5, CC11^+, CRL1550, CRL7920); experiment: Cell proliferation evaluation, statements over the cervical cancerous cell lines; details: three cervical cancerous cell lines
Procedure: (§1) Cell culture. The A2780 ovarian carcinoma cell lines were purchased from ECACC (Salisbury, UK) and were grown in complete RPMI medium supplemented with 10% fetal calf serum, in the presence of penicillin, streptomycin. The resistance of A2780/DDP cells to cisplatin was maintained by monthly treatment with 1 μM cisplatin for 4 days. H1299 Non Small Cell Lung Carcinoma (ATCC® CRL-5803™) and were grown in RPMI medium supplemented with 10% fetal calf serum, 1% HEPES, 1% Sodium Pyruvate in the presence of penicillin and streptomycin. In addition, four cervical cancerous cell lines, already resistant to some conventional chemotherapy (Gemcitabin, methothrexate, vinorelbin and/or cisplatin) were chosen: IC5 (from Institut Curie), CRL1550 (ATCC® CRL1550™), CC11^+ (Cellosaurus CVCL_DF82) and CRL7920 (ATCC® CRL7920™). They were grown in complete RPMI medium supplemented with 10% fetal calf serum, in the presence of penicillin, streptomycin.
(§2) Cell proliferation evaluation. Cells were treated with various concentrations of NHC-Pt, at 37° C. under humidity and 5% CO2 conditions for 96 h. Cellular growth was quantified using the Moxi Z Mini automated cell counter (Orflox technology). CellTiter Glo® Luminescent Cell Viability Assay following the kit instructions (Promega) was also used. […]

[2] = system: A2780cis (A2780/DDP) cells; experiment: Cell proliferation evaluation on cisplatin-resistant A2780cis; details: for ability to counteract the cisplatin resistance: A780cis cell line
Procedure: as §1
Cell proliferation evaluation. Cells were treated with various concentrations of NHC-Pt, at 37° C. under humidity and 5% CO2 conditions for 96 h. Cellular growth was quantified using the Moxi Z Mini automated cell counter (Orflox technology). CellTiter Glo® Luminescent Cell Viability Assay following the kit instructions (Promega) was also used. But since doses that inhibit 50% of cell proliferation (IC50) not always correlated to the number of cells, as previously observed (Uehara, T., Mitsuhashi, A., Tsuruoka, N., and Shozu, M. (2015) Metformin potentiates the anticancer effects of cisplatin under normoxic conditions in vitro, Oncology reports 33, 744-750), cell counting was privileged. […]

[3] = system: A2780 ovarian carcinoma cell lines; experiment: Cell proliferation evaluation (cell counting) on A2780; details: A2780, 4 days (96 h) treatment
Procedure: as §1, §2

[4] = system: CRL1550 cervical cancerous cell line; experiment: Cell proliferation evaluation on CRL1550; details: CRL1550, 4 days treatment
Procedure: as §1, §2

[5] = system: IC5 cervical cancerous cell line; experiment: Cell proliferation evaluation on IC5; details: IC5, 4 days treatment
Procedure: as §1, §2

[6] = system: CC11^+ cervical cancerous cell line; experiment: Cell proliferation evaluation on CC11+; details: 4 days treatment
Procedure: as §1, §2

[7] = system: A2780 cell lines; experiment: Radiosensitization assay on A2780; details: A2780, 1 μM complex, 1 day pretreatment, D10 six days post-irradiation
Procedure: (§3) For one day or 10 min pretreatment, cells were seeded at a number allowing 5 doubling populations growth without reaching confluence in the untreated samples. They were then pretreated during the time indicated at the indicated NHC-Pt concentrations, irradiated at 1, 2, 3 and 4 Gy for A2780 cell lines and 2. 4. 6 and 8 Gy for H1299 and allow growing until 6 days. IC5 cells were irradiated at 1, 2, 3, 4 and 5 Gy, CC11^+ were irradiated at 2, 3, 4, 5 and 6 Gy and allow growing until 7 days, CRL1550 were irradiated at 2, 4, 6 and 8 Gy and allow growing until 5 days. CRL79200 were irradiated at 1, 2, 3 and 4 Gy and allow growing until 15 days. For 4 days pretreatment, cells were seeding in the conditions of cell cytotoxicity determination, trypsinised, seeded at a number allowing 5 doubling population growth without reaching confluence in the untreated samples and treated one day before irradiation. Irradiation is using GSR D1 irradiator (gamma-ray, 662 keV). The cells were left to grow for 6 days to allow at least 5 population doublings. Cell count of each well is taken and a graph is plotted with the percentage survival of each treatment of cells with its control (0 Gy). […]
(§4) All the complexes were first evaluated for their radiosensitizing properties on A2780 and H1299 cell lines. […] The D10 doses were evaluated as the doses allowing 10% survival six days post-irradiation. […]

[8] = system: H1299 cell lines; experiment: Radiosensitization assay on H1299; details: H1299, 1 μM complex, 1 day pretreatment, D10 six days post-irradiation
Procedure: as §3, §4

[9] = system: A2780 cells; experiment: Immunofluorescence assay, DNA damage repair kinetics (γ-H2AX and 53BP1 foci); details: A2780, 2 Gy, 2 h and 6 h post irradiation, 1 day pre-treatment
Procedure: Immunofluorescence Assays. A2780 cells were plated on coverslips in 6-well plates. After 1 day of incubation with the various NHC-Pt at their RS doses, cells were irradiated at 2 Gys, incubated the time indicated post-irradiation, washed with phosphate-buffered saline (PBS), then fixed 10 minutes in 4% formaldehyde. After a wash with PBS, cells were permeabilised 2 min using 0.5% Triton X-100 and is washed with PBS. The cells were incubated in blocking buffer (5% bovine serum albumin in PBS) for 30 min before being incubated for 1 h with the primary mouse monoclonal antibody against g-H2AX (milipore) or 53BP1. After three washes with PBS, the cells were incubated for an additional 1 h with the Alexa Fluor 488-conjugated secondary antibody (Alexa Fluor 488 goat anti-mouse IgG; Life Technologies). Nuclei were labeled using DAPI and the coverslides were mounted with Vectashield™. Acquisitions were performed on a3D-dev or 3D-SIM in the microscopy platform from Institut Curie. ImageJ software ([…]) was used to project the z-stacks and count the number of g-H2AX or 53BP1 spots as well as their intensity and size in nuclei. […]
The inventors analyzed, by immunofluorescence, the γ-H2AX and 53BP1 foci, γ-H2AX being a DNA damage sensor and 53BP1 being a DNA repair sensor at different time post-irradiation (0.5-24 h).

Structure (SMILES) | cytotoxic activity as compared to C2 [1] | radiosensitizing properties at 1 μM [7] | radiosensitizing properties at 1 μM [8] | ability to counteract the cisplatin resistance [2] | also measured
OCCN1C=CN(CCCCCCN2C=CN(CCO)[CH]2[Pt]([I])([I])[NH]C2CCCCC2)[CH]1[Pt]([I])([I])[NH]C1CCCCC1 (stereo not drawn) [C9, {1,1′-(hexane-1,6-diyl)bis[3-(2-hydroxethyl)imidazol-2-ylidene]}bis{[trans-diiodo(N-cyclohexylamine)platinum]}] | improved cytotoxic activity |  |  |  | 
N.N.[Cl][Pt][Cl] [Cisplatin, cisplatin] |  |  |  |  | IC50 ([2]; cisplatin-resistant cell line, 96 h, read-out: IC50 in A780cis cell line): 6000 nM; IC50 [3]: 300 nM; IC50 [4]: 390 ± 40 nM; IC50 [5]: 490 ± 50 nM; IC50 [6]: 6 nM
CN1C=CN(C)[CH]1[Pt]([I])([I])[NH]C1CCCCC1 [MS140, trans-Diiodo(N-cyclohexylamine)(1,3-dimethylimidazol-2-ylidene)platinum] |  | significant radiosensitizing properties | significant radiosensitizing properties |  | 
CN1C=CN(CCCCCCN2C=CN(C)[CH]2[Pt]([I])([I])[N]2CCOCC2)[CH]1[Pt]([I])([I])[N]1CCOCC1 (stereo not drawn) [C7, [1,1′-(hexane-1,6-diyl)bis(3-methylimidazol-2-ylidene)]bis[trans-diiodo(N-morpholine)platinum]] | improved cytotoxic activity |  |  |  | 
CN1C=CN(C)[CH]1[Pt]([NH2])([I])[I] [MS113, trans-Diiodo(ammonia)(1,3-dimethylimidazol-2-ylidene)platinum] |  |  |  | it is not the case | 
CN1C=CN(CCCCCCN2C=CN(C)[CH]2[Pt]([NH2])([I])[I])[CH]1[Pt]([NH2])([I])[I] (stereo not drawn) [C2, [1,1′-(hexane-1,6-diyl)bis(3-methylimidazol-2-ylidene)]bis[trans-diiodo(ammonia)platinum]] |  | significant radiosensitizing properties | significant radiosensitizing properties | able to counteract the cisplatin resistance | DNA damage repair after irradiation (γ-H2AX foci) [9]: induced a delay in the DNA damage repair
